Reference: ChEMBL document CHEMBL5154845, “Dual-acting antitumor agents targeting the A2A adenosine receptor and histone deacetylases: Design and synthesis of 4-(furan-2-yl)-1H-pyrazolo[3,4-d]pyrimidin-6-amine derivatives” (Eur J Med Chem, 2022)
Active and inactive are the calls of the source. No cut-off for these calls is given here.

Assays:
Histone deacetylase 2 = Histone deacetylase 2 (Homo sapiens, UniProt Q92769); assay: Inhibition of HDAC2 (unknown origin) using trypsin and LGK(Ac)-AMC as substrates incubated for 1 hr and measured by fluorescence assay
[1] = Oral bioavailability in male ICR mouse at 20 mg/kg measured up to 24 hrs by LC-MS/MS analysis; type: ADME, organism-based; conditions: in vivo
[2] = AUC (0 to t) in male ICR mouse at 5 mg/kg, iv measured up to 24 hrs by LC-MS/MS analysis; type: ADME, organism-based; parameters: time < 24 hrs, dose 5 mg/kg, route iv; conditions: in vivo
MC-38 [3] = assay: Antitumor activity against mouse MC38 cells xenografted in C57 mouse assessed as tumor growth inhibition at 150 mg/kg, po administered once a day; type: functional; conditions: read-out: TGI
[4] = Tmax in male ICR mouse at 20 mg/kg, po measured up to 24 hrs by LC-MS/MS analysis; type: ADME, organism-based; conditions: in vivo
[5] = Elimination rate constant in male ICR mouse at 5 mg/kg, iv measured up to 24 hrs by LC-MS/MS analysis; type: ADME, organism-based; conditions: in vivo
CT26 = assay: Antiproliferative activity against mouse CT26 cells after 72 hrs by CCK-8 assay; type: functional
MC38 [6] = assay: Inhibition of HDAC in mouse MC38 cells assessed as increase in H3 acetylation at 0.1 to 5 uM measured by western blot analysis; type: cell-based; conditions: dose 0.1-5 µM
[7] = Elimination rate constant in male ICR mouse at 20 mg/kg, po measured up to 24 hrs by LC-MS/MS analysis; type: ADME, organism-based; conditions: in vivo
Histone deacetylase 8 = target: T1, Histone deacetylase 8 (Homo sapiens, UniProt Q9BY41); assay: Inhibition of HDAC8 (unknown origin) using trypsin and LGK(Ac)-AMC as substrates incubated for 1 hr and measured by fluorescence assay
T1 sequence (Q9BY41 whole entry): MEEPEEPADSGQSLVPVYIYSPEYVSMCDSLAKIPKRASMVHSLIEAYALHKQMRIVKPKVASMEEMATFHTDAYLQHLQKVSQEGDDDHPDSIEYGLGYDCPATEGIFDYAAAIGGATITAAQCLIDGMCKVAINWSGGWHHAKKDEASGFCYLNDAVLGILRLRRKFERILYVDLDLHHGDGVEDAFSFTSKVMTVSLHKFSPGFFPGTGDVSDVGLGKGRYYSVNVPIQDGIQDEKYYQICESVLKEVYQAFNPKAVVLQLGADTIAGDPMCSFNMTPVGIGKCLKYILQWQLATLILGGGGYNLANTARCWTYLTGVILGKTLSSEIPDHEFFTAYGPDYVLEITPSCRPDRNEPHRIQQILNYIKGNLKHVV

Adenosine receptor A2b = target: T2, Adenosine receptor A2b (Homo sapiens, UniProt P29275); assay: Displacement of [3H]DPCPX from human A2BAR incubated for 60 mins by scintillation counter analysis
T2 sequence (P29275 whole entry): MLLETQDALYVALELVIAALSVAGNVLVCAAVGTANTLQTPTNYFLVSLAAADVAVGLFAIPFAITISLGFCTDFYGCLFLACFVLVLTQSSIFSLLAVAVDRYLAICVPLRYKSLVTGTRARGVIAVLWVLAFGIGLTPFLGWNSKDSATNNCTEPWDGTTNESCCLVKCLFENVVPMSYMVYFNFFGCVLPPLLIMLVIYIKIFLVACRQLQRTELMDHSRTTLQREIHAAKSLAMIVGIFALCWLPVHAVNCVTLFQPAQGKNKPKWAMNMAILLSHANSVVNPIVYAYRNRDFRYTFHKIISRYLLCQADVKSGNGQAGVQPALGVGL

[8] = Volume of distribution at steady state in male ICR mouse at 5 mg/kg, iv measured up to 24 hrs by LC-MS/MS analysis; type: ADME, organism-based; conditions: in vivo
[9] = Mean residence time in male ICR mouse at 5 mg/kg, iv measured up to 24 hrs by LC-MS/MS analysis; type: ADME, organism-based; conditions: in vivo
MC-38 [10] = assay: Antiproliferative activity against mouse MC38 cells after 72 hrs by CCK-8 assay; type: functional
[11] = Elimination rate constant in male ICR mouse at 20 mg/kg, ip measured up to 24 hrs by LC-MS/MS analysis; type: ADME, organism-based; conditions: in vivo
[12] = Half-life in male ICR mouse at 5 mg/kg, iv measured up to 24 hrs by LC-MS/MS analysis; type: ADME, organism-based; conditions: in vivo
Adenosine receptor A2a = Adenosine receptor A2a (Homo sapiens, UniProt P29274); assay: Displacement of [3H][…] from human A2AAR incubated for 60 mins by scintillation counter analysis
[13] = Clearance in male ICR mouse at 20 mg/kg, ip measured up to 24 hrs by LC-MS/MS analysis; type: ADME, organism-based; conditions: in vivo
Histone deacetylase 1 = Histone deacetylase 1 (Homo sapiens, UniProt Q13547); assay: Inhibition of HDAC1 (unknown origin) using trypsin and LGK(Ac)-AMC as substrates incubated for 1 hr and measured by fluorescence assay
[14] = Bioavailability in male ICR mouse at 20 mg/kg,ip measured up to 24 hrs by LC-MS/MS analysis; type: ADME, organism-based; conditions: in vivo
MC-38 [15] = assay: Antitumor activity against mouse MC38 cells xenografted in C57 mouse assessed as tumor growth inhibition at 30 mg/kg, ip administered twice a day; type: functional; conditions: read-out: TGI
Adenosine receptor A3 = target: T3, Adenosine receptor A3 (Homo sapiens, UniProt P0DMS8); assay: Displacement of [3H]HEMADO from human A3AR incubated for 60 mins by scintillation counter analysis
T3 sequence (P0DMS8 whole entry): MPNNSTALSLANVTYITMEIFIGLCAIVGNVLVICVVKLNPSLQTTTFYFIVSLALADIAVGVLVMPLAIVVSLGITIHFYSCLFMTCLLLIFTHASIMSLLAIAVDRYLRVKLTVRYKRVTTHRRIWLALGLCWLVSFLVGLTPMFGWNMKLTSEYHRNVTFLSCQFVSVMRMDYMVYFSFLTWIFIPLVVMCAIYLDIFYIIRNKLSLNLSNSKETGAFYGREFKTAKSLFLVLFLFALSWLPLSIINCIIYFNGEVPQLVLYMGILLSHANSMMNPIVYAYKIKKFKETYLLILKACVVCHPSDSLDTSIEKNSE

Histone deacetylase 3 = Histone deacetylase 3 (Homo sapiens, UniProt O15379); assay: Inhibition of HDAC3 (unknown origin) using trypsin and LGK(Ac)-AMC as substrates incubated for 1 hr and measured by fluorescence assay
[16] = Mean residence time in male ICR mouse at 20 mg/kg, ip measured up to 24 hrs by LC-MS/MS analysis; type: ADME, organism-based; conditions: in vivo
[17] = Cmax in male ICR mouse at 5 mg/kg, iv measured up to 24 hrs by LC-MS/MS analysis; type: ADME, organism-based; parameters: dose 5 mg/kg, time < 24 hrs, route iv; conditions: in vivo
MC38 [18] = assay: Inhibition of HDAC in mouse MC38 cells assessed as increase in H4 acetylation at 0.1 to 5 uM measured by western blot analysis; type: cell-based; conditions: dose 0.1-5 µM
[19] = Initial plasma concentration in male ICR mouse at 5 mg/kg, iv measured up to 24 hrs by LC-MS/MS analysis; type: ADME, organism-based
[20] = AUC (0 to t) in male ICR mouse at 20 mg/kg, ip measured up to 24 hrs by LC-MS/MS analysis; type: ADME, organism-based; parameters: dose 20 mg/kg, time < 24 hrs, route ip; conditions: in vivo
MC-38 [21] = assay: Antitumor activity against mouse MC38 cells xenografted in C57 mouse assessed as tumor growth inhibition at 60 mg/kg, ip administered twice a day; type: functional; conditions: read-out: TGI

Chain of Adenosine receptor A2a (P29274 whole entry): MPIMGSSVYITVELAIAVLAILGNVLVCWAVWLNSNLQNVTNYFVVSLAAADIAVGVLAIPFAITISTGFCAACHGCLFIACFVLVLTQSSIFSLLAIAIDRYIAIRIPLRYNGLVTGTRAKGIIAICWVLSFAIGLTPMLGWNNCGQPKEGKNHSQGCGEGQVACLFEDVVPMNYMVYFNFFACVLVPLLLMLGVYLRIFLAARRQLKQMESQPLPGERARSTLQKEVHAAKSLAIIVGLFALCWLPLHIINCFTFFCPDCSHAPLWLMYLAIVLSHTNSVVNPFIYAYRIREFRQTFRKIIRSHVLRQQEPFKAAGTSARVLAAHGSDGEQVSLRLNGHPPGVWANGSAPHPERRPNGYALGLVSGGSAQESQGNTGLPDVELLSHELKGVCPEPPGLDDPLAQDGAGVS
Chain of Histone deacetylase 1 (Q13547 whole entry): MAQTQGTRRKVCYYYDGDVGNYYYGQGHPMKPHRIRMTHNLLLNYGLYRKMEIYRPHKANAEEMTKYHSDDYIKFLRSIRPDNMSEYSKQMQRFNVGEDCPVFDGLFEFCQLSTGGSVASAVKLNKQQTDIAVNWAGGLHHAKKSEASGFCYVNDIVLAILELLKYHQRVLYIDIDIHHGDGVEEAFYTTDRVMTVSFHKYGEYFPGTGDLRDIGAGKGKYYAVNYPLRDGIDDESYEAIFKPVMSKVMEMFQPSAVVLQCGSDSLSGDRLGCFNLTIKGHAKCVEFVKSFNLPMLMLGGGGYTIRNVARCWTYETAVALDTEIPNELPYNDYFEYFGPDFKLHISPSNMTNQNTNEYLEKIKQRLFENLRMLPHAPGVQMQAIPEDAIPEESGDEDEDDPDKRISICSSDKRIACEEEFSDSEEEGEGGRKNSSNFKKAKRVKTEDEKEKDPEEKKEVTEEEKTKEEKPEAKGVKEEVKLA
Chain of Histone deacetylase 3 (O15379 whole entry): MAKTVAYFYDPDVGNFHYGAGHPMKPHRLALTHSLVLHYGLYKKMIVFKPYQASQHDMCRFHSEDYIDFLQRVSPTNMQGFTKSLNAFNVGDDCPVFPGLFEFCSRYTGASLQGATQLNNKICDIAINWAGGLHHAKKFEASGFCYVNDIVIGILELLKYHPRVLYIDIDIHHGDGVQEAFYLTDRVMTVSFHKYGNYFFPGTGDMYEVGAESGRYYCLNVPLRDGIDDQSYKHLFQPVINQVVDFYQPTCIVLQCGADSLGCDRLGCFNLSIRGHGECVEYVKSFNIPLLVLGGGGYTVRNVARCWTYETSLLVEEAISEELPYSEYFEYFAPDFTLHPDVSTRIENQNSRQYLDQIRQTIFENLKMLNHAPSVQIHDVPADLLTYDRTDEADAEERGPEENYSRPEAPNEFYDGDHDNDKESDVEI
Chain of Histone deacetylase 2 (Q92769 whole entry): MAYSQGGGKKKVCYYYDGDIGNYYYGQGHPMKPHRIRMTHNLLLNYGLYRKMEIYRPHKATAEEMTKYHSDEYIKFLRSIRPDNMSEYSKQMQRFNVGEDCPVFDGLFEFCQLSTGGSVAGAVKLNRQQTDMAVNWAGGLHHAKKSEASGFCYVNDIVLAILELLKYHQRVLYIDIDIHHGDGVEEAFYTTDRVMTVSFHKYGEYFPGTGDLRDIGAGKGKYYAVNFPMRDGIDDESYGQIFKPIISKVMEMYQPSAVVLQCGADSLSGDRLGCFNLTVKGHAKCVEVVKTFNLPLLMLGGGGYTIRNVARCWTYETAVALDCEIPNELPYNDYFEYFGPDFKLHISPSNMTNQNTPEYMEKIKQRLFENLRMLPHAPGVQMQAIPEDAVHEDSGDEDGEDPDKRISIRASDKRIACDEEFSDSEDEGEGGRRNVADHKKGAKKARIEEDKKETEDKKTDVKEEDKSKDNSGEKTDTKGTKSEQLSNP

IC50 (Histone deacetylase 2): 240 nM
bioavailability [1]: 43%
AUCt [2]: 2098 ng·h/mL
Tmax [4]: 20 min
k el at 24 h [5]: 0.000506 s⁻¹
GI50 (CT26): 380 nM
k el at 24 h [7]: 0.000108 s⁻¹
IC50 (Histone deacetylase 8): > 10000 nM
Ki (Adenosine receptor A2b): > 10000 nM
Vdss [8]: 0.92 L/kg
MRT [9]: 23.4 min
k el at 24 h [11]: 0.000234 s⁻¹
half-life [12]: 23.3 min
Ki (Adenosine receptor A2a): 163 nM
CL/F [13]: 33.5 mL/min/kg
IC50 (Histone deacetylase 1): 145 nM
bioavailability [14]: 119%
Ki (Adenosine receptor A3): > 10000 nM
IC50 (Histone deacetylase 3): 444 nM
MRT [16]: 57 min
Cmax [17]: 4700 ng/mL
C0 at 24 h [19]: 6500 ng/mL
AUC(0-t) at 24 h [20]: 10000 ng·h/mL
Compound: Nc1nc(-c2ccco2)c2cnn(CCc3ccc(C(=O)Nc4ccccc4N)cc3)c2n1
inhibition in vivo at 150 mg/kg (MC-38 [3]): 26%
inhibition (MC38 [6]): Active
GI50 (MC-38 [10]): 290 nM
inhibition in vivo at 30 mg/kg (MC-38 [15]): 68%
inhibition (MC38 [18]): Active
inhibition in vivo at 60 mg/kg (MC-38 [21]): 85%
